Assay [1] concerns the target T1, human B1R receptor (hB1R) (Homo sapiens, UniProt P46663).
T1 construct: host or cells: CHO K1 cells
T1 sequence (P46663 1-353): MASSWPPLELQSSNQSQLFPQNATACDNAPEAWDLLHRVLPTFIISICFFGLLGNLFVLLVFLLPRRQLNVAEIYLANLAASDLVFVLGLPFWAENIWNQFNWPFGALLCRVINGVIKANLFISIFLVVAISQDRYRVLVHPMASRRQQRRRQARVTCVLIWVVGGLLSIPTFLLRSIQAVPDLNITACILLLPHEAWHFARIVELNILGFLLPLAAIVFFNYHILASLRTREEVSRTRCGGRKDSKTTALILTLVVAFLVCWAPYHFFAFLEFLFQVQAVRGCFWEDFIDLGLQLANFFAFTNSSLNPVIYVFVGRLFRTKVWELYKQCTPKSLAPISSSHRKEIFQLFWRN
In words: FLIPR Ca2+ assay on hB1R-transfected CHO K1 cells, antagonistic action. Type of assay: cell-based. To be noted: CHO-K1, 10 μM test substance; agonist Lys-Des-Arg9-bradykinin 0.5 nM; % of maximum achievable inhibition; read-out: hB1R [10 μM] % inhibition.

In assay [2] the target is T2, B1R receptor of the rat (rB1R) (Rattus norvegicus, UniProt P97583).
T2 construct: host or cells: CHO K1 cells
T2 sequence (P97583 1-337): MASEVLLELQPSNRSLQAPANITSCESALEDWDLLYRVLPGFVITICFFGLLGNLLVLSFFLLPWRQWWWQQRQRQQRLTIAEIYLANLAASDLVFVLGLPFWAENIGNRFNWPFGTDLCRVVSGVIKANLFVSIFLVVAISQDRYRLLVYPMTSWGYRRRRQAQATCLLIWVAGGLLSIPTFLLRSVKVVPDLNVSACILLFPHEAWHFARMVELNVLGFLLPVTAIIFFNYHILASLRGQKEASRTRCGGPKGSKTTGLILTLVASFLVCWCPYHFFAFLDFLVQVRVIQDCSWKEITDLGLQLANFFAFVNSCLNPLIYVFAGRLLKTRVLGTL
In words: FLIPR Ca2+ assay on rB1R-transfected CHO K1 cells, antagonistic action. To be noted: CHO-K1, 10 μM test substance; agonist Des-Arg9-bradykinin 100 nM; % of maximum achievable inhibition; read-out: rB1R [10 μM] % inhibition. Format: cell-based.

With `COc1cc(C)c(S(=O)(=O)N2CCCCC2COCC(=O)N(C)CCCC2CCC(Cc3ccccc3)(N3CCCC3)CC2)c(C)c1` (stereo not drawn) [Compound 88, N-(3-(4-benzyl-4-(pyrrolidin-1-yl)cyclohexyl)propyl)-2-((1-(4-methoxy-2,6-dimethylphenylsulfonyl)piperidin-2-yl)methoxy)-N-methylacetamide], the inhibition (commonly the drop in the measured response relative to a control, in per cent) at 10 µM in assay [1] came to 101%; in assay [2] it was 98%.

For the compound `CN(CC1CCC(CCc2ccccc2)(N2CCCC2)CC1)C(=O)CC(NS(=O)(=O)c1ccc2ccccc2c1)c1ccccc1` (stereo not drawn) [Compound 89, N-methyl-3-(naphthalene-2-sulfonamido)-N-((4-phenethyl-4-(pyrrolidin-1-yl)cyclohexyl)methyl)-3-phenylpropanamide], the inhibition at 10 µM in assay [1] was found to be 92%; in assay [2], 98%.

Take `CN(CCC1CCC(c2ccccc2)(N(C)C)CC1)C(=O)CC(NS(=O)(=O)c1ccc2ccccc2c1)c1ccccc1` (stereo not drawn) [Compound 90, N-(2-(4-(dimethylamino)-4-phenylcyclohexyl)ethyl)-N-methyl-3-(naphthalene-2-sulfonamido)-3-phenylpropanamide]: the inhibition at 10 µM in assay [1] and in assay [2] was 97% throughout.

As to `COc1cc(C)c(S(=O)(=O)N(C)CCOCC(=O)N(C)CCCC2CCC(CCc3ccccc3)(N3CCCC3)CC2)c(C)c1` (stereo not drawn) [Compound 91, 2-(2-(4-methoxy-N,2,6-trimethylphenylsulfonamido)ethoxy)-N-methyl-N-(3-(4-phenethyl-4-(pyrrolidin-1-yl)cyclohexyl)propyl)acetamide], the inhibition at 10 µM in assay [1] was determined as 98%; in assay [2], 97%.

For `CN(CC1CCC(c2ccccc2)(N2CCCC2)CC1)C(=O)CC(NS(=O)(=O)c1ccc2ccccc2c1)c1ccccc1` (stereo not drawn) [Compound 92, N-methyl-3-(naphthalene-2-sulfonamido)-3-phenyl-N-((4-phenyl-4-(pyrrolidin-1-yl)cyclohexyl)methyl)propanamide], the inhibition at 10 µM in assay [1] amounted to 101%; in assay [2], 95%.

`CN(CCCC1CCC(Cc2ccccc2)(N2CCCC2)CC1)C(=O)CC1CCCCN1S(=O)(=O)c1cccc(C(F)(F)F)c1` (stereo not drawn) [Compound 93, N-(3-(4-benzyl-4-(pyrrolidin-1-yl)cyclohexyl)propyl)-N-methyl-2-(1-(3-(trifluoromethyl)phenylsulfonyl)piperidin-2-yl)acetamide]: the inhibition at 10 µM in assay [1] was 98%; in assay [2], 94%.

Turning to `CN(CC1CCC(Cc2ccccc2)(N2CCCC2)CC1)C(=O)CC1CCCCN1S(=O)(=O)c1cccc(C(F)(F)F)c1` (stereo not drawn) [Compound 94, N-((4-benzyl-4-(pyrrolidin-1-yl)cyclohexyl)methyl)-N-methyl-2-(1-(3-(trifluoromethyl)phenylsulfonyl)piperidin-2-yl)acetamide], the inhibition at 10 µM in assay [1] was found to be 64%; in assay [2], 93%.

In the case of `CN(CCC1CCC(Cc2ccccc2)(N(C)C)CC1)C(=O)CC1CCCCN1S(=O)(=O)c1cccc(C(F)(F)F)c1` (stereo not drawn) [Compound 95, N-(2-(4-benzyl-4-(dimethylamino)cyclohexyl)ethyl)-N-methyl-2-(1-(3-(trifluoromethyl)phenylsulfonyl)piperidin-2-yl)acetamide], the inhibition at 10 µM in assay [1] was 99%; in assay [2], 93%.

In the case of `CN1CCN(C2(c3ccc(F)cc3)CCN(C(=O)CC(NS(=O)(=O)c3ccc4ccccc4c3)c3ccccc3)CC2)CC1` (stereo not drawn) [Compound 96, N-(3-(4-(4-fluorophenyl)-4-(4-methylpiperazin-1-yl)piperidin-1-yl)-3-oxo-1-phenylpropyl)naphthalene-2-sulfonamide], the inhibition at 10 µM in assay [1] is 100%; in assay [2], 91%.

For the compound `CN(C)C1(Cc2ccccc2)CCN(C(=O)CC2CCCCN2S(=O)(=O)c2cccc(C(F)(F)F)c2)CC1` (stereo not drawn) [Compound 97, 1-(4-benzyl-4-(dimethylamino)piperidin-1-yl)-2-(1-(3-(trifluoromethyl)phenylsulfonyl)piperidin-2-yl)ethanone], the inhibition at 10 µM in assay [1] worked out at 102%; in assay [2] it was 91%.

For the compound `O=C(CC(NS(=O)(=O)c1ccc2ccccc2c1)c1ccccc1)N1CCC(c2ccccc2)(N2CCN(c3ccncc3)CC2)CC1` (stereo not drawn) [Compound 98, N-(3-oxo-1-phenyl-3-(4-phenyl-4-(4-(pyridin-4-yl)piperazin-1-yl)piperidin-1-yl)propyl)naphthalene-2-sulfonamide], the inhibition at 10 µM in assay [1] worked out at 72%; in assay [2], 91%.

With `Cc1cc(S(=O)(=O)N2CCCCC2CCC(=O)N2CCC(c3ccccc3)(N3CCN(c4ccncc4)CC3)CC2)c(C)cc1Cl` (stereo not drawn) [Compound 99, 3-(1-(4-chloro-2,5-dimethylphenylsulfonyl)piperidin-2-yl)-1-(4-phenyl-4-(4-(pyridin-4-yl)piperazin-1-yl)piperidin-1-yl)propan-1-one], the inhibition at 10 µM worked out at 100% in assay [1] and 90% in assay [2].

As to `O=C(COCC1CCc2ccccc2N1S(=O)(=O)c1ccc(Cl)c(Cl)c1)N1CCC(c2ccccc2)(N2CCN(c3ccncc3)CC2)CC1` (stereo not drawn) [Compound 100, 2-((1-(3,4-dichlorophenylsulfonyl)-1,2,3,4-tetrahydroquinolin-2-yl)methoxy)-1-(4-phenyl-4-(4-(pyridin-4-yl)piperazin-1-yl)piperidin-1-yl)ethanone], the inhibition at 10 µM came out at 51% in assay [1] and 88% in assay [2].

As for `CN(CCC1CCC(CCc2ccccc2)(N(C)C)CC1)C(=O)COCC1CCc2ccccc2N1S(=O)(=O)c1ccc(Cl)c(Cl)c1` (stereo not drawn) [Compound 101, 2-((1-(3,4-dichlorophenylsulfonyl)-1,2,3,4-tetrahydroquinolin-2-yl)methoxy)-N-(2-(4-(dimethylamino)-4-phenethylcyclohexyl)ethyl)-N-methylacetamide], the inhibition at 10 µM in assay [1] was 99%; in assay [2], 88%.

For `CN(CCC1CCC(CCc2ccccc2)(N(C)C)CC1)C(=O)CC(NS(=O)(=O)c1ccc2ccccc2c1)c1ccccc1` (stereo not drawn) [Compound 102, N-(2-(4-(dimethylamino)-4-phenethylcyclohexyl)ethyl)-N-methyl-3-(naphthalene-2-sulfonamido)-3-phenylpropanamide], the inhibition at 10 µM stood at 97% in assay [1] and 85% in assay [2].

`CN1CCN(C2(c3cccc(F)c3)CCN(C(=O)COCC3CCc4ccccc4N3S(=O)(=O)c3ccc(Cl)c(Cl)c3)CC2)CC1` (stereo not drawn) [Compound 103, 2-((1-(3,4-dichlorophenylsulfonyl)-1,2,3,4-tetrahydroquinolin-2-yl)methoxy)-1-(4-(3-fluorophenyl)-4-(4-methylpiperazin-1-yl)piperidin-1-yl)ethanone]: the results for the inhibition at 10 µM in assay [1] and in assay [2] were 73% and 82%, respectively.

As for `CN(CCC1CCC(Cc2ccccc2)(N2CCCC2)CC1)C(=O)COCC1CCc2ccccc2N1S(=O)(=O)c1ccc(Cl)c(Cl)c1` (stereo not drawn) [Compound 104, N-(2-(4-benzyl-4-(pyrrolidin-1-yl)cyclohexyl)ethyl)-2-((1-(3,4-dichlorophenylsulfonyl)-1,2,3,4-tetrahydroquinolin-2-yl)methoxy)-N-methylacetamide], the inhibition at 10 µM came to 60% in assay [1] and 82% in assay [2].

On to `CN(C)C1(CCc2ccccc2)CCN(C(=O)CC(NS(=O)(=O)c2ccc3ccccc3c2)c2ccccc2)CC1` (stereo not drawn) [Compound 105, N-(3-(4-(dimethylamino)-4-phenethylpiperidin-1-yl)-3-oxo-1-phenylpropyl)naphthalene-2-sulfonamide], for which the inhibition at 10 µM in assay [1] is 83%; in assay [2], 81%.

Turning to `CN(CCC1CCC(c2ccccc2)(N2CCCC2)CC1)C(=O)CC1CCCCN1S(=O)(=O)c1cccc(C(F)(F)F)c1` (stereo not drawn) [Compound 106, N-methyl-N-(2-(4-phenyl-4-(pyrrolidin-1-yl)cyclohexyl)ethyl)-2-(1-(3-(trifluoromethyl)phenylsulfonyl)piperidin-2-yl)acetamide], the inhibition at 10 µM in assay [1] was 101%; in assay [2], 79%.

On to `Cc1cc(S(=O)(=O)N2CCCCC2CCC(=O)N(C)CCC2CCC(c3ccccc3)(N(C)C)CC2)c(C)cc1Cl` (stereo not drawn) [Compound 107, 3-(1-(4-chloro-2,5-dimethylphenylsulfonyl)piperidin-2-yl)-N-(2-(4-(dimethylamino)-4-phenylcyclohexyl)ethyl)-N-methylpropanamide], for which the inhibition at 10 µM in assay [1] came out at 105%; in assay [2], 79%.

As for `CN1CCN(C2(Cc3ccccc3)CCN(C(=O)COCC3CCc4ccccc4N3S(=O)(=O)c3ccc(Cl)c(Cl)c3)CC2)CC1` (stereo not drawn) [Compound 108, 1-(4-benzyl-4-(4-methylpiperazin-1-yl)piperidin-1-yl)-2-((1-(3,4-dichlorophenylsulfonyl)-1,2,3,4-tetrahydroquinolin-2-yl)methoxy)ethanone], the values for the inhibition at 10 µM in assay [1] and in assay [2] were 60% and 79%, respectively.

Source of the values: patent US20090253669A1, “Substituted Sulfonamide Compounds” (GRUENENTHAL GmbH, priority 2008, published 2009).
